Consider 4 molecules from patent US20250255851A1, “SOLID FORMS OF AN ALDOSTERONE SYNTHASE INHIBITOR” (Boehringer Ingelheim International GmbH, priority 2024, published 2025).

Assay type in all cases: physicochemical
Series [1] can be described thus: Biopharmaceutics Classification System (BCS) classification.
The nature of series [2]: Stability of crystalline form (resistance to change in crystalline form). An excerpt: However, these solvate of Compound 1 are generally not as stable (for example, resistant to change in crystalline form) as Form I and Form X. This lack of stability generally requires special processing and storage conditions for the solvates, thus making them less desirable as a component of a solid form of a pharmaceutical preparation. […] Alternatively, processes for preparing Compound 1 may involve formation of a crystalline solvate form of Compound 1 as an intermediate step prior to final preparation of Form I or Form X. For example, the purification and/or isolation of the crystalline solvates of Compound 1 may be used to remove impurities prior to conversion of the crystalline solvates to Form I and/or Form X using methods described herein.
Despite the lower stability of the other crystalline forms of Compound 1 (Forms II, Ill, IV, VI, VII and IX), the other crystalline forms are still useful as intermediates to prepare Form I and/or Form X as described herein.

The nature of series [3]: Dynamic Vapor Sorption (DVS) water sorption isotherm. As for the experimental part: Water sorption isotherms are determined using a dynamic vapor sorption system (Advantage 1, DVS, London, UKDVS Intrinsic Plus, Surface Measurement Systems, Allentown, PA). Approximately 5-10 mg of solid is weighed into a tared aluminum pan. […] Equilibration criteria are dm/dt of 0.002% over 5 minutes or 360 minutes at a specified % RH. Each sample is equilibrated at each RH step for at least 60 min, and equilibrium is assumed if weight increase is less than 0.1% within one minute, and the maximum duration on each RH is 6 hours. Therefore, each sample is held at a given RH for 1 to 6 hours depending on how fast the equilibrium is reached. Exemplary DVS of the compounds of the invention are found in the Figures.

The nature of series [4]: Storage stability of solid form samples at controlled temperature and relative humidity. Particulars: at least 9 months at 25° and 60% and at least 6 months at 40° and 75% relative humidity; both storage conditions. As for the experimental part: Samples of Form I were maintained for at least 9 months at 25°, and 60% and at least 6 months at 40° and 75% relative humidity.
Samples of Form X were maintained for at least 9 months at 25°, and 60% and at least 6 months at 40° and 75% relative humidity.

In the case of `C[C@]1(CO)Cc2ncn(-c3ccc(C#N)c(Cl)c3)c2C(=O)O1` [Form I, 2-chloro-4-[(6R)-6-(hydroxymethyl)-6-methyl-4-oxo-3H,4H,6H,7H-pyrano[3,4-d]imidazol-3-yl]benzonitrile], the BCS class entry in series [1] is “class 1”. The “relative stability of crystalline form (resistance to change in form)” value in series [2] (compared with Form II, Form III and the crystalline solvate forms) was “more stable”. For the same molecule, the “water uptake (DVS)” value in series [3] (at 95% Rh during the second cycle, 25° C.) was “about 0.4 % (wt.)”. In addition, in series [3] (second DVS cycle), the “hygroscopicity (from DVS plot)” value was “non-hygroscopic”. Further, in series [4], the “impurity levels after storage” value was “no increase in impurity levels”, the “particle size distribution after storage” value is “no change in particle sized distribution”, the “solid form after storage” value is given as “no change in solid form” and the “water content after storage” value is “no increase in water content”.

With `C[C@]1(CO)Cc2ncn(-c3ccc(C#N)c(Cl)c3)c2C(=O)O1` [Form IV, 2-chloro-4-[(6R)-6-(hydroxymethyl)-6-methyl-4-oxo-3H,4H,6H,7H-pyrano[3,4-d]imidazol-3-yl]benzonitrile], the “conversion of crystalline form” value in series [2] (at elevated temperature and/or under high humidity) is “convert to Form I and/or Form X”.

Turning to `C[C@]1(CO)Cc2ncn(-c3ccc(C#N)c(Cl)c3)c2C(=O)O1` [Form VI, 2-chloro-4-[(6R)-6-(hydroxymethyl)-6-methyl-4-oxo-3H,4H,6H,7H-pyrano[3,4-d]imidazol-3-yl]benzonitrile], in series [3] (DVS cycles, 25° C.), the “solid form transformation during DVS (solvent replaced by water)” value was “transformed to a mixture of Form I and Form III”. The “mass stability over humidity range (DVS profile)” value in series [3] (sharp descending step when 80% RH was reached) is on record as “stable over a wide humidity range from RH=0 to the 80%”.

As to `C[C@]1(CO)Cc2ncn(-c3ccc(C#N)c(Cl)c3)c2C(=O)O1` [Form X, 2-chloro-4-[(6R)-6-(hydroxymethyl)-6-methyl-4-oxo-3H,4H,6H,7H-pyrano[3,4-d]imidazol-3-yl]benzonitrile], the “water uptake (DVS)” value in series [3] (at 90% Rh during the second cycle, 25° C.) is reported as “about 0.07%”.
